Columns and labels:
[1] = shake-flask solubility of coumarin in neat alcohols, spectrophotometric determination; assay type: physicochemical; details: mean ± SD, n = 3
Experimental: This solution was then successfully diluted by transferring its fixed amounts to 10 mL volumetric flasks and adding methanol. The obtained series of solutions with decreasing coumarin concentrations was measured spectrophotometrically, and the absorbance values found at 310 nm wavelength were plotted against the corresponding concentration values. Three separate curves were prepared and then averaged, with the resulting linear equation being y = 42.346x + 0.0085. The curve can be characterized by high linearity, with the determination coefficient of R^2 = 0.9997. […] In this study, the shake-flask-type method of solubility determination was used. […] The prepared samples were incubated for 24 h at four different temperatures (25-40 °C with 5 °C intervals) using an ES-20/60 Orbital Shaker Incubator supplied by Biosan (Riga, Latvia). The temperature adjustment accuracy was 0.1 °C, and its variance during the daily cycle was ±0.5 °C. Moreover, the mixing of the samples at 60 rev/min was provided by the incubator. In the next step, the samples were filtered using a syringe with a PTFE filter with a […] pore size. All of the test tubes, syringes, and filters were preheated to the appropriate temperature to avoid the precipitation of dissolved coumarin. Finally, fixed amounts of the filtrate were transferred to test tubes, which were prefilled with a set amount of methanol, and samples prepared in this way were measured spectrophotometrically. The concentration of coumarin in the samples was determined through spectrophotometric measurements using an […] spectrophotometer from AOE Instruments (Shanghai, China). Spectra in the 190-700 nm wavelength range were recorded with a 1 nm resolution, and samples were diluted with methanol, which was also used as a reference. The absorbance values at 310 nm were used in conjunction with the calibration curve prepared earlier. Three samples were measured for each data point, and their concentrations were averaged and expressed as mole fractions.

[2] = set-up: method as in PMID 18583357; details: dependence on pH; cited from earlier work

Structure (SMILES): O=c1ccc2ccccc2o1 [coumarin, 2H-1-benzopyran-2-one]
- solubility expressed as molar fraction ([1]; 1-butanol, 25 °C): 16.95 ± 1.09 molar fraction ×10^3
- solubility expressed as molar fraction ([1]; 1-butanol, 30 °C): 34.87 ± 1.34 molar fraction ×10^3
- solubility expressed as molar fraction ([1]; 1-butanol, 35 °C): 60.64 ± 0.77 molar fraction ×10^3
- solubility expressed as molar fraction ([1]; 1-butanol, 40 °C): 94.59 ± 2.12 molar fraction ×10^3
- solubility expressed as molar fraction ([1]; 1-octanol, 25 °C): 19.18 ± 0.67 molar fraction ×10^3
- solubility expressed as molar fraction ([1]; 1-octanol, 30 °C): 37.37 ± 1.24 molar fraction ×10^3
- solubility expressed as molar fraction ([1]; 1-octanol, 35 °C): 67.23 ± 2.91 molar fraction ×10^3
- solubility expressed as molar fraction ([1]; 1-octanol, 40 °C): 104.05 ± 0.71 molar fraction ×10^3
- solubility expressed as molar fraction ([1]; 1-pentanol, 25 °C): 19.66 ± 0.28 molar fraction ×10^3
- solubility expressed as molar fraction ([1]; 1-pentanol, 30 °C): 42.95 ± 1.59 molar fraction ×10^3
- solubility expressed as molar fraction ([1]; 1-pentanol, 35 °C): 77.44 ± 0.55 molar fraction ×10^3
- solubility expressed as molar fraction ([1]; 1-pentanol, 40 °C): 126.01 ± 7.64 molar fraction ×10^3
- solubility expressed as molar fraction ([1]; 1-propanol, 25 °C): 41.02 ± 0.72 molar fraction ×10^3
- solubility expressed as molar fraction ([1]; 1-propanol, 30 °C): 74.27 ± 2.42 molar fraction ×10^3
- solubility expressed as molar fraction ([1]; 1-propanol, 35 °C): 121.65 ± 5.97 molar fraction ×10^3
- solubility expressed as molar fraction ([1]; 1-propanol, 40 °C): 181.10 ± 4.99 molar fraction ×10^3
- solubility expressed as molar fraction ([1]; 2-propanol, 25 °C): 30.17 ± 0.60 molar fraction ×10^3
- solubility expressed as molar fraction ([1]; 2-propanol, 30 °C): 60.35 ± 1.81 molar fraction ×10^3
- solubility expressed as molar fraction ([1]; 2-propanol, 35 °C): 101.22 ± 4.59 molar fraction ×10^3
- solubility expressed as molar fraction ([1]; 2-propanol, 40 °C): 154.88 ± 5.76 molar fraction ×10^3
- solubility expressed as molar fraction ([1]; ethanol, 25 °C): 49.43 ± 2.59 molar fraction ×10^3
- solubility expressed as molar fraction ([1]; ethanol, 30 °C): 90.16 ± 5.57 molar fraction ×10^3
- solubility expressed as molar fraction ([1]; ethanol, 35 °C): 142.45 ± 5.12 molar fraction ×10^3
- solubility expressed as molar fraction ([1]; ethanol, 40 °C): 210.96 ± 6.24 molar fraction ×10^3
- solubility expressed as molar fraction ([1]; methanol, 25 °C): 77.01 ± 4.68 molar fraction ×10^3
- solubility expressed as molar fraction ([1]; methanol, 30 °C): 127.52 ± 5.07 molar fraction ×10^3
- solubility expressed as molar fraction ([1]; methanol, 35 °C): 196.63 ± 7.30 molar fraction ×10^3
- solubility expressed as molar fraction ([1]; methanol, 40 °C): 286.50 ± 6.20 molar fraction ×10^3
- aqueous solubility [2]: decreases with the increase of pH
